Source: ChEMBL document CHEMBL5321285 (J Med Chem, 2023)

Legend:
[1] = target: Sigma non-opioid intracellular receptor 1 (Homo sapiens, UniProt Q99720); assay: Displacement of [3H]-(+)-pentazocine from human sigma1 receptor transfected in HEK293 cell membranes assessed as inhibition constant incubated for 120 mins in presence of haloperidol by microbeta scintillation counter analysis; design: species or system Cell membrane
[2] = target: Sigma intracellular receptor 2 (Homo sapiens, UniProt Q5BJF2); assay: Displacement of [3H]-1,3-di-O-tolylguanidine from human sigma 2 receptor/TMEM97 transfected in sigma 1 receptor knockout HEK293 cell membranes assessed as inhibition constant measured after 120 mins by microbeta scintillation counting analysis; design: species or system Cell membrane
Chain of Sigma intracellular receptor 2 (Q5BJF2 whole entry): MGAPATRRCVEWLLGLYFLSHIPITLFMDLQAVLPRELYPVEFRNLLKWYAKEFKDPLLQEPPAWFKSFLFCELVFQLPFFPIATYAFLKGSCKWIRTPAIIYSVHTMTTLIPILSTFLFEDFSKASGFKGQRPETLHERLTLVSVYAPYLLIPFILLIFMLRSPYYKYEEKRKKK

[3] = organism: Homo sapiens; assay: Selectivity ratio of Ki for displacement of [3H]-(+)-pentazocine from human sigma1 receptor transfected in HEK293 cell membranes assessed as inhibition constant to Ki for displacement of [3H]-1,3-di-O-tolylguanidine from human sigma 2 receptor/TMEM97 transfected in sigma 1 receptor knockout HEK293 cell membranes assessed as inhibition constant
[4] = Metabolic stability in rat liver microsome assessed as parent compound remaining at 1 uM measured after 1 hr in presence of NADPH regenerating system by UPLC-MS/MS analysis; type: ADME; conditions: liver microsomes, read-out: Stability
[5] = Metabolic stability in mouse liver microsome assessed as parent compound remaining at 1 uM measured after 1 hr in presence of NADPH regenerating system by UPLC-MS/MS analysis; type: ADME; conditions: liver microsomes, read-out: Stability
[6] = Metabolic stability in human liver microsome assessed as parent compound remaining at 1 uM measured after 1 hr in presence of NADPH regenerating system by UPLC-MS/MS analysis; type: ADME; conditions: liver microsomes, read-out: Stability
[7] = target: Voltage-gated inwardly rectifying potassium channel KCNH2 (Homo sapiens, UniProt Q12809); assay: Inhibition of hERG expressed in CHO cells at holding potential of -80 mV measured for 15 seconds by whole cell patch clamp assay; type: toxicity, cell-based
Chain of Voltage-gated inwardly rectifying potassium channel KCNH2 (Q12809 whole entry): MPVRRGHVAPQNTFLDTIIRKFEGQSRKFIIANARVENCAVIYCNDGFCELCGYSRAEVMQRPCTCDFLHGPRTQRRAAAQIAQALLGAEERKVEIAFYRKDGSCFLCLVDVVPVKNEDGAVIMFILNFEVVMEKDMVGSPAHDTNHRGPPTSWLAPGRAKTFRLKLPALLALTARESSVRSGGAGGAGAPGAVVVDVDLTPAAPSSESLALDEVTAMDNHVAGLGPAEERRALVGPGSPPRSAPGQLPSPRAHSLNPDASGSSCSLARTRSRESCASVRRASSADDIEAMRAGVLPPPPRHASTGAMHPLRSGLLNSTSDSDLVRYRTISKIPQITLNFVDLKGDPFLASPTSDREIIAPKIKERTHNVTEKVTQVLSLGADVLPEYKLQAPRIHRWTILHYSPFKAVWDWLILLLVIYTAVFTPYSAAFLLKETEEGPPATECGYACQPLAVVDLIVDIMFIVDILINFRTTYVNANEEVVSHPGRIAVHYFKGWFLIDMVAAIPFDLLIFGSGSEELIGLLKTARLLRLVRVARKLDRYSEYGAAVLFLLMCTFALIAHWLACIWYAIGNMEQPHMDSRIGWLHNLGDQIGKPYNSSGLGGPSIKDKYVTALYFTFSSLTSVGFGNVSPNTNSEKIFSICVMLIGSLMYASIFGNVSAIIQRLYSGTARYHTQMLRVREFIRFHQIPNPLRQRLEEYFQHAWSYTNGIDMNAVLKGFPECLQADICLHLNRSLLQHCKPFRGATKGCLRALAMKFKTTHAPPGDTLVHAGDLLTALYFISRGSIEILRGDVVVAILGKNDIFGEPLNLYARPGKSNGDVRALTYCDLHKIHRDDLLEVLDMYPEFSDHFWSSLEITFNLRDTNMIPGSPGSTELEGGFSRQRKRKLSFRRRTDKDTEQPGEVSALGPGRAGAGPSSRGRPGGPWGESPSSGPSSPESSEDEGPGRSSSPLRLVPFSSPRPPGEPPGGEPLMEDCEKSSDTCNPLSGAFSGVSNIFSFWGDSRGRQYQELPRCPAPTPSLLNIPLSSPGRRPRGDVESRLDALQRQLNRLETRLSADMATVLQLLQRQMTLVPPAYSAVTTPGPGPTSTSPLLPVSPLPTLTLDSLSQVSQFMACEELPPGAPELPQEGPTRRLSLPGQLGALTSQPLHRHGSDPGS

Chain of Sigma non-opioid intracellular receptor 1 (Q99720 whole entry): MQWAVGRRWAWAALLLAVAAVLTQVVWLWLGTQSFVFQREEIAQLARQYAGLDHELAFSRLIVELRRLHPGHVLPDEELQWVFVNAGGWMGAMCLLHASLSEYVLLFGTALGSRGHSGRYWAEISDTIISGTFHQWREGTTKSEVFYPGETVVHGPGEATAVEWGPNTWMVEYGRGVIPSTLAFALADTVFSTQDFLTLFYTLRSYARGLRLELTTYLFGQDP

| Structure (SMILES) | Ki [1] | Ki [2] | remaining at 1 h, 1 µM [4] | remaining at 1 h, 1 µM [5] | remaining at 1 h, 1 µM [6] | Ratio Ki [3] | IC50 [7] |
| --- | --- | --- | --- | --- | --- | --- | --- |
| CCc1ncc(-c2cc(C)no2)c([C@H]2CCCN(CC(=O)N3CCOCC3)C2)n1 | > 10000 nM | 788 nM | – | – | – | – | – |
| CCc1ncc(-c2cc(C)no2)c(C2CCN(CC(=O)N3CCCOCC3)CC2)n1 | > 1000 nM | 5 nM | 84% | 69% | 77% | > 200 | > 10000 nM |
| Cc1cc(-c2cnc(C(C)C)nc2C2CCN(CC(=O)N3CCOCC3)CC2)on1 | > 1000 nM | 47 nM | 81% | 65% | 80% | > 21 | 3600 nM |
| CCc1ncc(-c2ccccn2)c(C2CCN(CC(=O)N3CCOCC3)CC2)n1 | > 1000 nM | 319 nM | – | – | – | > 3 | – |
| CCn1ncc(-c2cc(C)no2)c1C1CCN(CC(=O)N2CCOCC2)CC1 | > 1000 nM | > 1000 nM | – | – | – | – | – |
| CCc1ncc(-c2cc(C)no2)c([C@@H]2CCCN(CC(=O)N3CCOCC3)C2)n1 | > 10000 nM | 164 nM | – | – | – | – | – |
| Cc1cc(-c2cncnc2C2CCN(CC(=O)N3CCOCC3)CC2)on1 | > 1000 nM | 457 nM | – | – | – | > 2 | – |
| Cc1cc(-c2cnc(C(F)(F)F)nc2C2CCN(CC(=O)N3CCOCC3)CC2)on1 | > 1000 nM | 6 nM | 71% | 77% | 78% | > 166 | > 10000 nM |
| CCc1ncc(-c2nccn2C)c(C2CCN(CC(=O)N3CCOCC3)CC2)n1 | > 10000 nM | 951 nM | – | – | – | > 10 | – |
| Cc1cc(-c2cnc(C)nc2C2CCN(C(=O)CN3CCOCC3)CC2)on1 | > 1000 nM | > 1000 nM | – | – | – | – | – |

The next lines start with results.

| Ki [1] | Ki [2] | remaining at 1 h, 1 µM [4] | remaining at 1 h, 1 µM [5] | remaining at 1 h, 1 µM [6] | Structure (SMILES) | Ratio Ki [3] | IC50 [7] |
| --- | --- | --- | --- | --- | --- | --- | --- |
| 807 nM | 727 nM | – | – | – | CCc1ncc(-c2ccncc2)c(C2CCN(CC(=O)N3CCOCC3)CC2)n1 | 1.1 | – |
| > 1000 nM | 98 nM | 97% | 83% | 85% | CCc1ncc(-c2cc(C)no2)c(C2CCN(CC(=O)N3CCCN(C)CC3)CC2)n1 | > 10 | > 10000 nM |
| > 1000 nM | 61 nM | 90% | 89% | 89% | CCCc1ncc(-c2cc(C)no2)c(C2CCN(CC(=O)N3CCOCC3)CC2)n1 | > 16 | 5400 nM |
| > 1000 nM | 62 nM | 95% | 94% | 86% | CCc1ncc(-c2cc(C)no2)c(C2CCN(CCC(=O)N3CCOCC3)CC2)n1 | – | 4500 nM |
| > 1000 nM | > 1000 nM | – | – | – | CCc1ncc(-c2cc(C)no2)c(C2CCN(CC(=O)N3CCOCC3)C2)n1 (stereo not drawn) | – | – |
| > 1000 nM | 496 nM | – | – | – | CCn1cc(-c2cc(C)no2)c(C2CCN(CC(=O)N3CCOCC3)CC2)n1 | – | – |
| > 1000 nM | 116 nM | 96% | 76% | 83% | CCc1ncc(-c2cccc(C)n2)c(C2CCN(CC(=O)N3CCOCC3)CC2)n1 | > 8.6 | – |
| 237 nM | 131 nM | – | – | – | CCc1ncc(-c2cc(C)no2)c(C2CCCN(CC(=O)N3CCOCC3)CC2)n1 (stereo not drawn) | – | – |
| 2150 nM | 1 nM | 92% | 88% | 82% | CCc1ncc(-c2cc(C)no2)c(C2CCN(CC(=O)N3CCC4(CCOC4)CC3)CC2)n1 | 2150 | > 10000 nM |
| 882 nM | 4 nM | 101% | 59% | 58% | CCc1ncc(-c2cc(C)no2)c(C2CCN(CC(=O)N3CCCCC3)CC2)n1 | 220 | 8700 nM |
| 150 nM | 38 nM | 67% | 56% | 75% | CCc1ncc(-c2cc(C)no2)c(C2CCN(CCN3CCOCC3)CC2)n1 | – | > 10000 nM |
